COc1cccc(-c2nn(-c3ccccc3)cc2/C=C/C(=O)c2nc3ccccc3[nH]2)c1
solubility (mole fraction)
Conditions	in acetonitrile	in ethanol	in ethyl acetate	in methanol	in n-butanol	in n-pentanol	in n-propanol
298.15 K	2.91e-05	7.24e-05	0.000241	2.71e-05	0.00017	0.000227	0.000126
303.15 K	4.16e-05	8.5e-05	0.000256	3.15e-05	0.000185	0.000274	0.000145
308.15 K	5.87e-05	0.000106	0.000274	3.63e-05	0.000211	0.000312	0.000166
313.15 K	7.62e-05	0.000121	0.000292	4.12e-05	0.00023	0.000381	0.000187
318.15 K	9.21e-05	0.000136	0.000317	4.62e-05	0.000258	0.000427	0.000206
323.15 K	0.000111	0.000148	0.000336	5.15e-05	0.000285	0.000457	0.000231
328.15 K	0.000122	0.000165	0.000365	5.81e-05	0.000311	0.000499	0.000245

O=C(/C=C/c1cn(-c2ccccc2)nc1-c1ccc(Cl)cc1)c1nc2ccccc2[nH]1
solubility (mole fraction)
Conditions	in acetonitrile	in ethanol	in ethyl acetate	in methanol	in n-butanol	in n-pentanol	in n-propanol
298.15 K	0.000116	0.000102	0.000257	4.06e-05	0.00015	0.000253	8.35e-05
303.15 K	0.000135	0.000113	0.00029	5.1e-05	0.000175	0.000275	0.000103
308.15 K	0.000153	0.00012	0.000328	6.74e-05	0.000201	0.000304	0.000121
313.15 K	0.000171	0.000132	0.000385	7.9e-05	0.000216	0.000354	0.000132
318.15 K	0.000182	0.000148	0.000432	9.36e-05	0.00024	0.000387	0.00015
323.15 K	0.000193	0.000155	0.000482	0.000105	0.000258	0.000423	0.000158
328.15 K	0.000211	0.000172	0.000526	0.000117	0.000295	0.000442	0.000167

COc1ccc(-c2nn(-c3ccccc3)cc2/C=C/C(=O)c2nc3ccccc3[nH]2)cc1OC
solubility (mole fraction)
Conditions	in acetonitrile	in ethanol	in ethyl acetate	in methanol	in n-butanol	in n-pentanol	in n-propanol
298.15 K	0.000113	3.91e-05	0.000355	3.04e-05	0.00016	0.00031	0.000125
303.15 K	0.000135	5e-05	0.000425	3.6e-05	0.000209	0.00033	0.00014
308.15 K	0.000152	5.88e-05	0.000471	4.06e-05	0.000244	0.000354	0.00015
313.15 K	0.00017	7.16e-05	0.00052	4.47e-05	0.00028	0.000375	0.000167
318.15 K	0.000189	8.46e-05	0.000554	5.02e-05	0.000321	0.000395	0.000185
323.15 K	0.00021	0.0001	0.00059	5.5e-05	0.00035	0.000412	0.0002
328.15 K	0.00023	0.000111	0.000629	6.53e-05	0.00039	0.00043	0.00022

COc1ccc(-c2nn(-c3ccccc3)cc2/C=C/C(=O)c2nc3ccccc3[nH]2)cc1
solubility (mole fraction)
Conditions	in acetonitrile	in ethanol	in ethyl acetate	in methanol	in n-butanol	in n-pentanol	in n-propanol
298.15 K	0.000165	0.000352	0.000809	0.000145	0.00133	0.00156	0.00049
303.15 K	0.0002	0.000372	0.000826	0.000149	0.00136	0.00162	0.00052
308.15 K	0.000227	0.000385	0.000846	0.000155	0.00138	0.00168	0.000541
313.15 K	0.00025	0.000399	0.000868	0.00016	0.00142	0.00174	0.000565
318.15 K	0.000282	0.00042	0.000886	0.000167	0.00145	0.00179	0.000586
323.15 K	0.000301	0.00043	0.00091	0.00017	0.00149	0.00185	0.000615
328.15 K	0.000329	0.000452	0.000935	0.000177	0.00151	0.00191	0.000628

O=C(/C=C/c1cn(-c2ccccc2)nc1-c1ccccc1)c1nc2ccccc2[nH]1
solubility (mole fraction)
Conditions	in acetonitrile	in ethanol	in ethyl acetate	in methanol	in n-butanol	in n-pentanol	in n-propanol
298.15 K	5.71e-05	8.48e-05	0.000159	5.54e-05	0.000248	0.000257	0.000135
303.15 K	6.5e-05	9.4e-05	0.000195	6.53e-05	0.000275	0.000332	0.000152
308.15 K	7.61e-05	0.000106	0.000243	8.08e-05	0.000299	0.000406	0.000179
313.15 K	9.3e-05	0.000123	0.000312	8.83e-05	0.000335	0.000475	0.000189
318.15 K	0.000102	0.000135	0.000362	9.87e-05	0.000374	0.000535	0.000215
323.15 K	0.00012	0.000146	0.000403	0.000115	0.000425	0.000592	0.000226
328.15 K	0.000132	0.00016	0.000463	0.000123	0.000465	0.000639	0.000255

O=C(/C=C/c1cn(-c2ccccc2)nc1-c1ccccc1Cl)c1nc2ccccc2[nH]1
solubility (mole fraction)
Conditions	in acetonitrile	in ethanol	in ethyl acetate	in methanol	in n-butanol	in n-pentanol	in n-propanol
298.15 K	1.78e-05	0.000105	0.00077	9.04e-05	0.000294	0.000354	0.000157
303.15 K	6e-05	0.000125	0.00095	0.000116	0.00033	0.0004	0.000167
308.15 K	0.000101	0.000145	0.00107	0.000133	0.000354	0.000448	0.000177
313.15 K	0.00014	0.000157	0.0012	0.000149	0.0004	0.00051	0.000189
318.15 K	0.000187	0.000179	0.00135	0.000168	0.000445	0.0006	0.000205
323.15 K	0.00021	0.000195	0.00145	0.000187	0.0005	0.00069	0.00022
328.15 K	0.000241	0.000217	0.00157	0.000209	0.000533	0.00074	0.000244

O=C(/C=C/c1cn(-c2ccccc2)nc1-c1cccc([N+](=O)[O-])c1)c1nc2ccccc2[nH]1
solubility (mole fraction)
Conditions	in acetonitrile	in ethanol	in ethyl acetate	in methanol	in n-butanol	in n-pentanol	in n-propanol
298.15 K	0.000103	5.53e-05	0.0013	4.04e-05	0.000202	0.000281	0.000115
303.15 K	0.000123	6.2e-05	0.00149	4.85e-05	0.000236	0.000326	0.000135
308.15 K	0.000148	7.01e-05	0.0017	5.5e-05	0.000279	0.000368	0.000164
313.15 K	0.000163	8.42e-05	0.00194	5.9e-05	0.000324	0.000424	0.000175
318.15 K	0.00019	9.46e-05	0.00217	6.59e-05	0.000359	0.000455	0.000206
323.15 K	0.000216	0.000103	0.00244	7.4e-05	0.000402	0.000513	0.000226
328.15 K	0.000232	0.000119	0.00277	8.21e-05	0.000445	0.000557	0.000251
